Values quoted from earlier work in patent publication US20090137477A1, “Treatment of oropharyngeal candidiasis in cancer patients” (BIOALLIANCE PHARMA, priority 2007, published 2009).

Tested on: oropharyngeal candidiasis
Conditions: orally 50 mg/day for 14 days

## OC(Cn1cncn1)(Cn1cncn1)c1ccc(F)cc1F [fluconazole]
  clinical cure: 21%
  clinical response: 53%
